Assay results taken from the NIST ThermoML archive (doi:10.1021/je030177j).
Numbers after ± are expanded uncertainties.

Experiment: mn = molality of the nth substance listed, in mol/kg
Settings: Liquid, Capillary tube (Ostwald / Ubbelohde) method

O=S(=O)([O-])[O-].[Li+].[Li+] [lithium sulfate] + O
viscosity [mPa·s]
Settings	100 kPa	10000 kPa	20000 kPa	30000 kPa
298.15 K, m1 = 0.1	0.939 ± 0.015	–	–	–
298.15 K, m1 = 0.28	1.037 ± 0.017	–	–	–
298.15 K, m1 = 0.56	1.195 ± 0.019	1.195 ± 0.019	1.195 ± 0.019	1.195 ± 0.019
298.15 K, m1 = 0.885	1.411 ± 0.023	–	–	–
298.25 K, m1 = 0.28	–	1.035 ± 0.017	1.035 ± 0.017	1.036 ± 0.017
298.35 K, m1 = 0.1	–	0.936 ± 0.015	0.9361 ± 0.015	0.9363 ± 0.015
298.45 K, m1 = 0.885	–	1.404 ± 0.023	1.404 ± 0.023	1.404 ± 0.023
303.15 K, m1 = 0.1	0.862 ± 0.014	–	–	–
303.15 K, m1 = 0.28	0.951 ± 0.015	–	–	–
303.15 K, m1 = 0.56	1.096 ± 0.018	–	–	–
303.15 K, m1 = 0.885	1.294 ± 0.021	–	–	–
306.19 K, m1 = 0.56	–	1.013 ± 0.016	1.016 ± 0.016	1.018 ± 0.016
307.35 K, m1 = 0.885	–	1.17 ± 0.019	1.173 ± 0.019	1.176 ± 0.019
307.93 K, m1 = 0.28	–	0.8517 ± 0.014	0.8546 ± 0.014	0.857 ± 0.014
308.52 K, m1 = 0.1	–	0.7647 ± 0.012	0.7659 ± 0.012	0.7682 ± 0.012
311.24 K, m1 = 0.56	–	0.9141 ± 0.015	0.9168 ± 0.015	0.9192 ± 0.015
312.27 K, m1 = 0.28	–	0.778 ± 0.013	0.7812 ± 0.013	0.784 ± 0.013
313.15 K, m1 = 0.1	0.707 ± 0.011	–	–	–
313.15 K, m1 = 0.28	0.778 ± 0.013	–	–	–
313.15 K, m1 = 0.56	0.891 ± 0.014	–	–	–
313.15 K, m1 = 0.885	1.054 ± 0.017	–	–	–
313.67 K, m1 = 0.1	–	0.6899 ± 0.011	0.6927 ± 0.011	0.6955 ± 0.011
314.12 K, m1 = 0.885	–	1.016 ± 0.016	1.019 ± 0.016	1.023 ± 0.017
321.55 K, m1 = 0.28	–	0.6508 ± 0.01	0.6539 ± 0.011	0.6569 ± 0.011
322.35 K, m1 = 0.56	–	0.7352 ± 0.012	0.7388 ± 0.012	0.7422 ± 0.012
322.55 K, m1 = 0.885	–	0.8649 ± 0.014	0.8691 ± 0.014	0.8731 ± 0.014
323.15 K, m1 = 0.1	0.578 ± 0.0094	–	–	–
323.15 K, m1 = 0.28	0.63 ± 0.01	–	–	–
323.15 K, m1 = 0.56	0.722 ± 0.012	–	–	–
323.15 K, m1 = 0.885	0.853 ± 0.014	–	–	–
324.55 K, m1 = 0.1	–	0.566 ± 0.0092	0.5689 ± 0.0092	0.5716 ± 0.0093
329.44 K, m1 = 0.28	–	0.567 ± 0.0092	0.57 ± 0.0093	0.5731 ± 0.0093
330.24 K, m1 = 0.885	–	0.7558 ± 0.012	0.7598 ± 0.012	0.7639 ± 0.012
331.27 K, m1 = 0.56	–	0.6319 ± 0.01	0.6354 ± 0.01	0.6372 ± 0.01
331.86 K, m1 = 0.1	–	0.5013 ± 0.0082	0.5035 ± 0.0082	0.5061 ± 0.0082
333.15 K, m1 = 0.1	0.49 ± 0.008	–	–	–
333.15 K, m1 = 0.28	0.532 ± 0.0087	–	–	–
333.15 K, m1 = 0.56	0.61 ± 0.0099	–	–	–
333.15 K, m1 = 0.885	0.718 ± 0.012	–	–	–
338.71 K, m1 = 0.28	–	0.4914 ± 0.008	0.4942 ± 0.0081	0.4979 ± 0.0081
339.74 K, m1 = 0.1	–	0.4463 ± 0.0073	0.4491 ± 0.0073	0.452 ± 0.0074
340.72 K, m1 = 0.885	–	0.6414 ± 0.01	0.6452 ± 0.01	0.6494 ± 0.011
340.73 K, m1 = 0.56	–	0.5456 ± 0.0089	0.5484 ± 0.0089	0.5514 ± 0.009
343.15 K, m1 = 0.1	0.429 ± 0.007	–	–	–
343.15 K, m1 = 0.28	0.462 ± 0.0076	–	–	–
343.15 K, m1 = 0.56	0.53 ± 0.0086	–	–	–
343.15 K, m1 = 0.885	0.624 ± 0.01	–	–	–
343.35 K, m1 = 0.28	–	0.4594 ± 0.0075	0.4623 ± 0.0076	0.4653 ± 0.0076
347.05 K, m1 = 0.1	–	0.4034 ± 0.0066	0.4061 ± 0.0067	0.4088 ± 0.0067
348.15 K, m1 = 0.1	0.401 ± 0.0066	–	–	–
348.15 K, m1 = 0.28	0.433 ± 0.0071	–	–	–
348.15 K, m1 = 0.56	0.495 ± 0.0081	–	–	–
348.15 K, m1 = 0.885	0.582 ± 0.0095	–	–	–
348.95 K, m1 = 0.885	–	0.5714 ± 0.0093	0.5753 ± 0.0094	0.5792 ± 0.0095
349.55 K, m1 = 0.56	–	0.4831 ± 0.0079	0.4864 ± 0.008	0.4897 ± 0.008
351.04 K, m1 = 0.28	–	0.415 ± 0.0068	0.4183 ± 0.0069	0.4215 ± 0.0069
356.84 K, m1 = 0.1	–	0.3566 ± 0.0059	0.359 ± 0.0059	0.3621 ± 0.006
358.15 K, m1 = 0.1	0.355 ± 0.0059	–	–	–
358.15 K, m1 = 0.28	0.381 ± 0.0063	–	–	–
358.15 K, m1 = 0.56	0.437 ± 0.0072	–	–	–
358.15 K, m1 = 0.885	0.511 ± 0.0084	–	–	–
359.14 K, m1 = 0.885	–	0.4999 ± 0.0082	0.5041 ± 0.0083	0.508 ± 0.0083
361.24 K, m1 = 0.56	–	0.4168 ± 0.0069	0.4191 ± 0.0069	0.4222 ± 0.0069
362.74 K, m1 = 0.28	–	0.3601 ± 0.006	0.363 ± 0.006	0.3662 ± 0.006
365.04 K, m1 = 0.1	–	0.3241 ± 0.0054	0.3265 ± 0.0054	0.3291 ± 0.0055
369.72 K, m1 = 0.885	–	0.4415 ± 0.0073	0.4452 ± 0.0073	0.4495 ± 0.0074
372.13 K, m1 = 0.56	–	0.3691 ± 0.0061	0.3721 ± 0.0062	0.3752 ± 0.0062
375.75 K, m1 = 0.28	–	0.3127 ± 0.0052	0.3153 ± 0.0052	0.3181 ± 0.0053
378.85 K, m1 = 0.1	–	0.2812 ± 0.0047	0.2836 ± 0.0047	0.2862 ± 0.0048
379.05 K, m1 = 0.885	–	0.3993 ± 0.0066	0.4028 ± 0.0067	0.4065 ± 0.0067
383.06 K, m1 = 0.28	–	0.2916 ± 0.0049	0.2942 ± 0.0049	0.2974 ± 0.005
384.05 K, m1 = 0.56	–	0.3274 ± 0.0054	0.3304 ± 0.0055	0.3335 ± 0.0055
384.27 K, m1 = 0.885	–	0.3782 ± 0.0063	0.382 ± 0.0063	0.3861 ± 0.0064
389.16 K, m1 = 0.1	–	0.2554 ± 0.0043	0.2577 ± 0.0043	0.2599 ± 0.0044
390.35 K, m1 = 0.56	–	0.3089 ± 0.0052	0.3124 ± 0.0052	0.3154 ± 0.0053
390.42 K, m1 = 0.28	–	0.2721 ± 0.0046	0.275 ± 0.0046	0.2784 ± 0.0047
390.72 K, m1 = 0.885	–	0.355 ± 0.0059	0.3591 ± 0.006	0.3633 ± 0.006
397.35 K, m1 = 0.885	–	0.3337 ± 0.0056	0.3371 ± 0.0056	0.3406 ± 0.0057
399.95 K, m1 = 0.28	–	0.2502 ± 0.0042	0.2528 ± 0.0043	0.2555 ± 0.0043
400.84 K, m1 = 0.1	–	0.2306 ± 0.0039	0.2331 ± 0.004	0.236 ± 0.004
401.73 K, m1 = 0.56	–	0.2797 ± 0.0047	0.2827 ± 0.0047	0.2855 ± 0.0048
405.24 K, m1 = 0.885	–	0.3115 ± 0.0052	0.3152 ± 0.0053	0.3194 ± 0.0053
409.36 K, m1 = 0.28	–	0.2314 ± 0.0039	0.234 ± 0.004	0.2369 ± 0.004
410.95 K, m1 = 0.1	–	0.2126 ± 0.0036	0.215 ± 0.0037	0.2192 ± 0.0037
411.05 K, m1 = 0.56	–	0.2584 ± 0.0044	0.2613 ± 0.0044	0.2644 ± 0.0045
415.13 K, m1 = 0.56	–	0.2502 ± 0.0042	0.2531 ± 0.0043	0.2564 ± 0.0043
415.76 K, m1 = 0.885	–	0.286 ± 0.0048	0.2901 ± 0.0049	–
